{"source": "the supplement of paper PMC10307832", "assay_in_all_cases": "relative viability (nuclei count vs DMSO), 5 days (fraction); higher = more cells survive", "key": {"LC-2-ad": {"test_system": "LC-2-ad", "how_it_was_run": "(§1)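 Lung cancer cell lines were seeded in 1536-well plates and dosed by pin tool the next day, with either a single drug or a fixed anchor-drug dose combined with five library-drug doses (not always all listed) spaced in √10 steps. Five days later, one step fixed the cells and stained their nuclei (final 0.05% Triton X-100, 1% formaldehyde, 1 ug/ml Hoechst), and nuclei were counted on 4× images. Relative viability is the nuclei count in treated wells divided by the count in vehicle wells, and each value is the median of duplicate plates.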"}, "NCI-H2228": {"test_system": "NCI-H2228", "how_it_was_run": "as §1"}, "NCI-H650": {"test_system": "NCI-H650", "how_it_was_run": "as §1"}, "SK-MES-1": {"test_system": "SK-MES-1", "how_it_was_run": "as §1"}, "UMC-11": {"test_system": "UMC-11", "how_it_was_run": "as §1"}, "NCI-H2347": {"test_system": "NCI-H2347", "how_it_was_run": "as §1"}, "NCI-H1355": {"test_system": "NCI-H1355", "how_it_was_run": "as §1"}, "NCI-H1993": {"test_system": "NCI-H1993", "how_it_was_run": "as §1"}, "NCI-H1734": {"test_system": "NCI-H1734", "how_it_was_run": "as §1"}, "NCI-H1975": {"test_system": "NCI-H1975", "how_it_was_run": "as §1"}, "A-427": {"test_system": "A-427", "how_it_was_run": "as §1"}, "NCI-H1755": {"test_system": "NCI-H1755", "how_it_was_run": "as §1"}, "NCI-H23": {"test_system": "NCI-H23", "how_it_was_run": "as §1"}, "LCLC-103H": {"test_system": "LCLC-103H", "how_it_was_run": "as §1"}, "RERF-LC-KJ": {"test_system": "RERF-LC-KJ", "how_it_was_run": "as §1"}, "NCI-H1915": {"test_system": "NCI-H1915", "how_it_was_run": "as §1"}, "NCI-H2170": {"test_system": "NCI-H2170", "how_it_was_run": "as §1"}, "SW 1573": {"test_system": "SW 1573", "how_it_was_run": "as §1"}, "HCC-366": {"test_system": "HCC-366", "how_it_was_run": "as §1"}, "NCI-H1792": {"test_system": "NCI-H1792", "how_it_was_run": "as §1"}, "SK-LU-1": {"test_system": "SK-LU-1", "how_it_was_run": "as §1"}, "HCC-827": {"test_system": "HCC-827", "how_it_was_run": "as §1"}}}
{"smiles": "CN1CCN(CCOc2cc(OC3CCOCC3)c3c(Nc4c(Cl)ccc5c4OCO5)ncnc3c2)CC1", "note": "[Saracatinib] + C[C@@H](Oc1cc(-c2cnn(C3CCNCC3)c2)cnc1N)c1c(Cl)ccc(F)c1Cl [Crizotinib] (partner 1 µM)", "values": [{"measurement": "relative viability", "setting": "LC-2-ad; first compound 0.02 µM", "result": 0.434}, {"measurement": "relative viability", "setting": "LC-2-ad; first compound 0.2 µM", "result": 0.41}, {"measurement": "relative viability", "setting": "LC-2-ad; first compound 0.6325 µM", "result": 0.513}, {"measurement": "relative viability", "setting": "LC-2-ad; first compound 2 µM", "result": 0.371}, {"measurement": "relative viability", "setting": "NCI-H2228; first compound 0.02 µM", "result": 0.477}, {"measurement": "relative viability", "setting": "NCI-H2228; first compound 0.2 µM", "result": 0.326}, {"measurement": "relative viability", "setting": "NCI-H2228; first compound 0.6325 µM", "result": 0.306}, {"measurement": "relative viability", "setting": "NCI-H2228; first compound 2 µM", "result": 0.213}, {"measurement": "relative viability", "setting": "NCI-H650; first compound 0.02 µM", "result": 0.597}, {"measurement": "relative viability", "setting": "NCI-H650; first compound 0.2 µM", "result": 0.643}, {"measurement": "relative viability", "setting": "NCI-H650; first compound 0.6325 µM", "result": 0.639}, {"measurement": "relative viability", "setting": "NCI-H650; first compound 2 µM", "result": 0.622}, {"measurement": "relative viability", "setting": "SK-MES-1; first compound 0.02 µM", "result": 1.05}, {"measurement": "relative viability", "setting": "SK-MES-1; first compound 0.2 µM", "result": 0.858}, {"measurement": "relative viability", "setting": "SK-MES-1; first compound 0.6325 µM", "result": 0.825}, {"measurement": "relative viability", "setting": "SK-MES-1; first compound 2 µM", "result": 0.517}, {"measurement": "relative viability", "setting": "UMC-11; first compound 0.02 µM", "result": 0.571}, {"measurement": "relative viability", "setting": "UMC-11; first compound 0.6325 µM", "result": 0.677}, {"measurement": "relative viability", "setting": "UMC-11; first compound 2 µM", "result": 0.386}, {"measurement": "relative viability", "setting": "NCI-H2347; first compound 0.02 µM", "result": 0.732}, {"measurement": "relative viability", "setting": "NCI-H2347; first compound 0.2 µM", "result": 0.686}, {"measurement": "relative viability", "setting": "NCI-H2347; first compound 0.6325 µM", "result": 1.03}, {"measurement": "relative viability", "setting": "NCI-H2347; first compound 2 µM", "result": 0.486}, {"measurement": "relative viability", "setting": "NCI-H1355; first compound 0.02 µM", "result": 1.06}, {"measurement": "relative viability", "setting": "NCI-H1355; first compound 0.2 µM", "result": 1.13}, {"measurement": "relative viability", "setting": "NCI-H1355; first compound 0.6325 µM", "result": 1.08}, {"measurement": "relative viability", "setting": "NCI-H1355; first compound 2 µM", "result": 0.925}, {"measurement": "relative viability", "setting": "NCI-H1993; first compound 0.02 µM", "result": 0.832}, {"measurement": "relative viability", "setting": "NCI-H1993; first compound 0.2 µM", "result": 0.594}, {"measurement": "relative viability", "setting": "NCI-H1993; first compound 2 µM", "result": 0.589}, {"measurement": "relative viability", "setting": "NCI-H1734; first compound 0.02 µM", "result": 0.751}, {"measurement": "relative viability", "setting": "NCI-H1734; first compound 0.6325 µM", "result": 0.656}, {"measurement": "relative viability", "setting": "NCI-H1734; first compound 2 µM", "result": 0.507}, {"measurement": "relative viability", "setting": "NCI-H1975; first compound 0.02 µM", "result": 1.02}, {"measurement": "relative viability", "setting": "NCI-H1975; first compound 0.6325 µM", "result": 0.823}, {"measurement": "relative viability", "setting": "NCI-H1975; first compound 2 µM", "result": 0.515}, {"measurement": "relative viability", "setting": "A-427; first compound 0.02 µM", "result": 1.04}, {"measurement": "relative viability", "setting": "A-427; first compound 0.2 µM", "result": 0.604}, {"measurement": "relative viability", "setting": "A-427; first compound 0.6325 µM", "result": 0.837}, {"measurement": "relative viability", "setting": "A-427; first compound 2 µM", "result": 0.926}, {"measurement": "relative viability", "setting": "NCI-H1755; first compound 0.02 µM", "result": 0.883}, {"measurement": "relative viability", "setting": "NCI-H1755; first compound 0.2 µM", "result": 0.536}, {"measurement": "relative viability", "setting": "NCI-H1755; first compound 0.6325 µM", "result": 0.779}, {"measurement": "relative viability", "setting": "NCI-H1755; first compound 2 µM", "result": 0.662}, {"measurement": "relative viability", "setting": "NCI-H23; first compound 0.02 µM", "result": 0.528}, {"measurement": "relative viability", "setting": "NCI-H23; first compound 0.6325 µM", "result": 0.557}, {"measurement": "relative viability", "setting": "NCI-H23; first compound 2 µM", "result": 0.419}, {"measurement": "relative viability", "setting": "LCLC-103H; first compound 0.02 µM", "result": 1.11}, {"measurement": "relative viability", "setting": "LCLC-103H; first compound 0.2 µM", "result": 0.817}, {"measurement": "relative viability", "setting": "LCLC-103H; first compound 0.6325 µM", "result": 1.13}, {"measurement": "relative viability", "setting": "LCLC-103H; first compound 2 µM", "result": 0.976}, {"measurement": "relative viability", "setting": "RERF-LC-KJ; first compound 0.02 µM", "result": 0.81}, {"measurement": "relative viability", "setting": "RERF-LC-KJ; first compound 0.2 µM", "result": 0.833}, {"measurement": "relative viability", "setting": "RERF-LC-KJ; first compound 0.6325 µM", "result": 0.945}, {"measurement": "relative viability", "setting": "RERF-LC-KJ; first compound 2 µM", "result": 0.778}, {"measurement": "relative viability", "setting": "NCI-H1915; first compound 0.02 µM", "result": 0.913}, {"measurement": "relative viability", "setting": "NCI-H1915; first compound 0.2 µM", "result": 0.846}, {"measurement": "relative viability", "setting": "NCI-H1915; first compound 0.6325 µM", "result": 0.916}, {"measurement": "relative viability", "setting": "NCI-H1915; first compound 2 µM", "result": 0.875}, {"measurement": "relative viability", "setting": "NCI-H2170; first compound 0.02 µM", "result": 1.13}, {"measurement": "relative viability", "setting": "NCI-H2170; first compound 0.2 µM", "result": 1.24}, {"measurement": "relative viability", "setting": "NCI-H2170; first compound 0.6325 µM", "result": 1.13}, {"measurement": "relative viability", "setting": "NCI-H2170; first compound 2 µM", "result": 0.649}, {"measurement": "relative viability", "setting": "SW 1573; first compound 0.02 µM", "result": 0.744}, {"measurement": "relative viability", "setting": "SW 1573; first compound 0.2 µM", "result": 0.801}, {"measurement": "relative viability", "setting": "SW 1573; first compound 0.6325 µM", "result": 0.903}, {"measurement": "relative viability", "setting": "SW 1573; first compound 2 µM", "result": 0.591}, {"measurement": "relative viability", "setting": "HCC-366; first compound 0.02 µM", "result": 0.547}, {"measurement": "relative viability", "setting": "HCC-366; first compound 0.6325 µM", "result": 0.435}, {"measurement": "relative viability", "setting": "HCC-366; first compound 2 µM", "result": 0.182}, {"measurement": "relative viability", "setting": "NCI-H1792; first compound 0.02 µM", "result": 0.94}, {"measurement": "relative viability", "setting": "NCI-H1792; first compound 0.2 µM", "result": 0.922}, {"measurement": "relative viability", "setting": "NCI-H1792; first compound 0.6325 µM", "result": 1.15}, {"measurement": "relative viability", "setting": "NCI-H1792; first compound 2 µM", "result": 0.684}, {"measurement": "relative viability", "setting": "SK-LU-1; first compound 0.02 µM", "result": 0.774}, {"measurement": "relative viability", "setting": "SK-LU-1; first compound 0.2 µM", "result": 0.646}, {"measurement": "relative viability", "setting": "SK-LU-1; first compound 0.6325 µM", "result": 0.404}, {"measurement": "relative viability", "setting": "SK-LU-1; first compound 2 µM", "result": 0.331}, {"measurement": "relative viability", "setting": "HCC-827; first compound 0.02 µM", "result": 0.943}, {"measurement": "relative viability", "setting": "HCC-827; first compound 0.2 µM", "result": 0.452}, {"measurement": "relative viability", "setting": "HCC-827; first compound 0.6325 µM", "result": 0.247}, {"measurement": "relative viability", "setting": "HCC-827; first compound 2 µM", "result": 0.193}]}
